Experimental data published in ChEMBL document CHEMBL1143261, “Enantioselective actions of 4-amino-3-hydroxybutanoic acid and (3-amino-2-hydroxypropyl)methylphosphinic acid at recombinant GABA(C) receptors” (Bioorg Med Chem Lett, 2008).

How the values were obtained:
[1] = molecular target: T1, Gamma-aminobutyric acid receptor subunit rho-1 (Homo sapiens, UniProt P24046); experiment: Antagonist activity at human recombinant GABAc rho1 receptor expressed in Xenopus laevis oocytes at -60mV by two-electrode voltage clamp method; format: functional, cell-based, Oocyte
T1 sequence (P24046 whole entry): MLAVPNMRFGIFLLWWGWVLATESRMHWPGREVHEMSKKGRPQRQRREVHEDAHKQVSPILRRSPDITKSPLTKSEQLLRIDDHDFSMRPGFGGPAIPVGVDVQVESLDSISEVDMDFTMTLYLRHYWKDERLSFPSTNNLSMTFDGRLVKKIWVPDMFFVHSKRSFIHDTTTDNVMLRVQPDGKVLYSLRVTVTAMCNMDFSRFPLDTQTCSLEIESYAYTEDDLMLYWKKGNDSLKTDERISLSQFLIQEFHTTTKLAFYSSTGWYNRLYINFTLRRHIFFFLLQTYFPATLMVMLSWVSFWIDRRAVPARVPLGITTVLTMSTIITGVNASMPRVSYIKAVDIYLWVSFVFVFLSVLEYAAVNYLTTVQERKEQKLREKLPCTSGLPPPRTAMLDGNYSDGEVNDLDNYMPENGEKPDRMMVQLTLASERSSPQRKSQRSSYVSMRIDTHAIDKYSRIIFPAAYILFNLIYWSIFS

[2] = molecular target: T1, Gamma-aminobutyric acid receptor subunit rho-1; experiment: Agonist activity at human recombinant GABAc rho1 receptor expressed in Xenopus laevis oocytes at -60mV by two-electrode voltage clamp method; format: functional, cell-based, Oocyte

EC50 [2] [µM] | SMILES | IC50 [1] [µM]
– | CP(=O)(O)C[C@@H](O)CN | 17.1
– | CP(=O)(O)C[C@H](O)CN | 5.4
65 | C[C@@H](CCN)C(=O)O | –
– | C[C@H](CCN)C(=O)O | 16
19.1 | NC[C@H](O)CC(=O)O | –
44.8 | NC[C@@H](O)CC(=O)O | –
